Experimental data published in patent publication US10709725B2, “Gemcitabine ProTide hypoxia-activated prodrug and application thereof” (JIANGSU QIANZHIKANG BIOLOGICAL MEDICINE SCIENCE AND …, priority 2016, dated 2020).
Values after ≈ are worked out from the molar mass of the structure shown. “Also recorded” adds a separate entry of the source. Where two headings read alike, the source gives them in different places.

Key:
[1] = system: Human pancreatic adenocarcinoma cell BxPC-3 cell; assay: In-vitro inhibition of tumor cell proliferation (3H-TdR, 72 h), normal oxygen and hypoxic; format: cell-based; design: Median inhibition concentration IC50 normal oxygen (air) / Median inhibition concentration IC50 hypoxic (nitrogen): unit not given here; conditions: for IC50: Homo sapiens
[2] = system: Human lung adenocarcinoma cell A549; assay: as above; format: cell-based; conditions: A549, 72 h
Protocol: (§1) Take tumor cells in the logarithmic growth phase, add 0.25% pancreatin for digestion for 3 min, use RPMI-1640 containing 10% calf serum for suspension culture of the cells, count the number, adjust cell concentration to 1×10^5 cells/mL, inoculate to a Top-count dedicated 96-well cell culture plate at 100 μL/well, and incubate at 37° C. and 5% CO2 for 24 h; divide the cells into experimental groups and control groups, and add a target compound solution (0.001 μg/mL, 0.01 μg/mL, 0.1 μg/mL, 1 μg/mL, 10 μg/mL) to the experimental groups, wherein each concentration corresponded to four wells, and the volume of each well was made up to 200 μL; after adding samples, continue to culture for 72 h for each group (for hypoxic groups, continue to culture for 72 h at 5% CO2, 95% N2), add ^3H-TdR 3×10^5Bq to each group before culture ended, and measure the CPM (count per minute) value of each well with Top-count; and calculate the median inhibition concentration (IC50) of drugs in each experimental group on cell proliferation.

[3] = system: tumor cells; assay: In-vitro inhibition of tumor cell proliferation, hypoxic versus normal oxygen; format: cell-based; conditions: in words, see Table 1
Protocol: as §1

[4] = system: Human liver cancer HepG2 cell; assay: In-vitro inhibition of tumor cell proliferation (3H-TdR, 72 h), normal oxygen and hypoxic; format: cell-based; conditions: HepG2, 72 h
Protocol: as §1

[5] = system: subcutaneous transplantation tumor of human BxPC-3; assay: Growth inhibition of subcutaneous transplantation tumor of human BxPC-3 in nude mice, with animal weight; format: in vivo; conditions: high-dose group, 4 times of the effective dose (0.4 mmol/kg); FIG. 3
Protocol: Take BxPC-3 human pancreatic cancer cells in the logarithmic growth phase, inoculate subcutaneously on the back of nude mice at a concentration of 5×10^6 cells·0.2 mL^−1·mouse^−1, three weeks later, after the long diameters of the transplanted tumors in nude mice were all ≥5 mm, calculate the similar volume of tumor bodies based on the long diameter and short diameter of the transplanted tumors. Nude mice were divided into 5 groups by a random block design and allocation method according to the tumor volume.
Administration scheme: 50 model animals were randomly divided into a negative control group, a low-dose group (compound 001, 0.1 mmol/kg), a high-dose group (compound 001, 0.4 mmol/kg), a gemcitabine hydrochloride group (0.2 mmol/kg), and a combined administration group (compound 001, 0.1 mmol/kg+ gemcitabine hydrochloride, 0.1 mmol/kg), intraperitoneally injected (twice per week) for 3 weeks, and killed one week after drug withdrawal. At the same time, animal weight was measured and the eye condition of the animal was observed.

[6] = BXPC-3, 72 h, hypoxic (5% CO2, 95% N2), read-out: Median inhibition concentration IC50 hypoxic (nitrogen)
[7] = BXPC-3, 72 h, normal oxygen (air), read-out: Median inhibition concentration IC50 normal oxygen (air)
[8] = hypoxic (5% CO2, 95% N2), read-out: Median inhibition concentration IC50 hypoxic (nitrogen)
[9] = normal oxygen (air), read-out: Median inhibition concentration IC50 normal oxygen (air)
[10] = BxPC-3, 72 h, hypoxic (5% CO2, 95% N2)
[11] = BxPC-3, 72 h, normal oxygen (air)
[12] = BxPC-3, 72 h, hypoxic (5% CO2, 95% N2), read-out: Median inhibition concentration IC50 hypoxic (nitrogen)
[13] = BxPC-3, 72 h, normal oxygen (air), read-out: Median inhibition concentration IC50 normal oxygen (air)

SMILES	IC50 [1, 6] [µg/mL]	IC50 [1, 7] [µg/mL]	IC50 [2, 8] [µg/mL]	IC50 [2, 9] [µg/mL]	IC50 [4, 8] [µg/mL]	IC50 [4, 9] [µg/mL]	also measured
C[C@H](NP(=O)(OCc1ccc([N+](=O)[O-])s1)OC[C@H]1O[C@@H](n2cnc(N)nc2=O)C(F)(F)C1O)C(=O)OC1CCCCC1 (some centres unmarked) [Compound 013]	0.8 (≈ 1.25 µM)	> 10					
CC(OP(=O)(N[C@@H](C)C(=O)OCc1ccccc1)OC[C@H]1O[C@@H](n2ccc(N)nc2=O)C(F)(F)C1O)c1ccc([N+](=O)[O-])cc1 (some centres unmarked) [Compound 006]	0.4 (≈ 0.612 µM)	> 10	0.2 (≈ 0.306 µM)	2 (≈ 3.06 µM)			
CC(OC(=O)[C@H](C)NP(=O)(OC[C@H]1O[C@@H](n2ccc(N)nc2=O)C(F)(F)C1O)Oc1ccccc1)c1ccc([N+](=O)[O-])s1 (some centres unmarked) [Compound 005]			0.1 (≈ 0.155 µM)	2 (≈ 3.1 µM)			
CCCCOC(=O)[C@H](C)NP(=O)(OC[C@H]1O[C@@H](n2cnc(N)nc2=O)C(F)(F)C1O)OC(C)c1ccc([N+](=O)[O-])cc1 (some centres unmarked) [Compound 010]			0.2 (≈ 0.322 µM)	2 (≈ 3.22 µM)			
CC(OC(=O)Nc1ccn([C@@H]2O[C@H](COP(=O)(N[C@@H](C)C(=O)OCc3ccccc3)Oc3ccccc3)C(O)C2(F)F)c(=O)n1)c1ccc([N+](=O)[O-])cc1 (some centres unmarked) [Compound 022]			0.01 (≈ 0.0129 µM)	0.01 (≈ 0.0129 µM)	0.3 (≈ 0.388 µM)	0.4 (≈ 0.517 µM)	IC50 ([1]; BXPC-3, 72 h, read-out: Median inhibition concentration IC50 hypoxic (nitrogen)): 0.1 µg/mL (≈ 0.129 µM); IC50 ([1]; BXPC-3, 72 h, read-out: Median inhibition concentration IC50 normal oxygen (air)): 0.1 µg/mL (≈ 0.129 µM); Cytotoxicity under a hypoxic condition compared with that under a normal oxygen condition [3]: not significantly different
COC(=O)[C@H](C)NP(=O)(OC[C@H]1O[C@@H](n2cnc(N)nc2=O)C(F)(F)C1O)OC(C)c1ccc([N+](=O)[O-])cc1 (some centres unmarked) [Compound 014]							Median inhibition concentration IC50 hypoxic (nitrogen) [1, 10]: 0.7; Median inhibition concentration IC50 normal oxygen (air) [1, 11]: > 10
COc1ccc(COP(=O)(N[C@@H](C)C(=O)OC(C)c2ccc([N+](=O)[O-])o2)OC[C@H]2O[C@@H](n3ccc(N)nc3=O)C(F)(F)C2O)cc1 (some centres unmarked) [Compound 018]	0.5 (≈ 0.742 µM)	> 10					
C[C@H](NP(=O)(OCc1ccccc1Cl)OC[C@H]1O[C@@H](n2ccc(N)nc2=O)C(F)(F)C1O)C(=O)OC(C)(C)c1ccc([N+](=O)[O-])s1 (some centres unmarked) [Compound 024]							Median inhibition concentration IC50 hypoxic (nitrogen) [1, 10]: >10; Median inhibition concentration IC50 normal oxygen (air) [1, 11]: >10; Cytotoxicity under a hypoxic condition compared with that under a normal oxygen condition [3]: differed slightly
CC(OC(=O)[C@H](C)NP(=O)(OC[C@H]1O[C@@H](n2cnc(N)nc2=O)C(F)(F)C1O)Oc1ccccc1)c1ccc([N+](=O)[O-])o1 (some centres unmarked) [Compound 004]							IC50 [1, 12]: 0.4 µg/mL (≈ 0.634 µM); IC50 [1, 13]: > 10 µg/mL
CCOC(=O)[C@H](C)NP(=O)(OC[C@H]1O[C@@H](n2cnc(N)nc2=O)C(F)(F)C1O)OC(C)c1ccc([N+](=O)[O-])cc1 (some centres unmarked) [Compound 008]	0.4 (≈ 0.675 µM)	> 10			0.3 (≈ 0.506 µM)	> 10	
CC(C)OC(=O)[C@H](C)NP(=O)(OC[C@H]1O[C@@H](n2cnc(N)nc2=O)C(F)(F)C1O)OC(C)c1ccc([N+](=O)[O-])cc1 (some centres unmarked) [Compound 009]	0.4 (≈ 0.66 µM)	> 10	0.2 (≈ 0.33 µM)	2 (≈ 3.3 µM)			
COc1ccccc1COP(=O)(N[C@@H](C)C(=O)OC(C)c1cnc([N+](=O)[O-])n1C)OC[C@H]1O[C@@H](n2ccc(N)nc2=O)C(F)(F)C1O (some centres unmarked) [Compound 021]	0.5 (≈ 0.727 µM)	> 10					
COC(=O)[C@H](C)NP(=O)(OC[C@H]1O[C@@H](n2cnc(N)nc2=O)C(F)(F)C1O)OC(C)c1ccc([N+](=O)[O-])cc1 (some centres unmarked) [Compound 007]	0.4 (≈ 0.692 µM)	> 10			0.5 (≈ 0.864 µM)	> 10	
C[C@H](NP(=O)(OCc1ccc([N+](=O)[O-])o1)OC[C@H]1O[C@@H](n2ccc(N)nc2=O)C(F)(F)C1O)C(=O)OCc1ccccc1 (some centres unmarked) [Compound 015]	0.5 (≈ 0.794 µM)	> 10					
CC(OC(=O)[C@H](C)NP(=O)(OC[C@H]1O[C@@H](n2ccc(N)nc2=O)C(F)(F)C1O)Oc1ccccc1)c1ccc([N+](=O)[O-])cc1 (some centres unmarked) [Compound 001]			0.05 (≈ 0.0782 µM)	1 (≈ 1.56 µM)	0.3 (≈ 0.469 µM)	> 10	IC50 [1, 12]: 0.2 µg/mL (≈ 0.313 µM); IC50 [1, 13]: > 10 µg/mL; Animal weight [5]: no significant difference in animal weight; also recorded: not significantly different from that of the low-dose group and a positive control drug gemcitabine group
Nc1ccn([C@@H]2O[C@H](CO)[C@@H](O)C2(F)F)c(=O)n1 [Gemcitabine]			0.01 (≈ 0.038 µM)	0.01 (≈ 0.038 µM)	0.2 (≈ 0.76 µM)	0.2 (≈ 0.76 µM)	IC50 [1, 12]: 0.2 µg/mL (≈ 0.76 µM); IC50 [1, 13]: 0.2 µg/mL (≈ 0.76 µM); Cytotoxicity under a hypoxic condition compared with that under a normal oxygen condition [3]: no significant difference
CC(C)OC(=O)[C@H](C)NP(=O)(OCc1ccc([N+](=O)[O-])s1)OC[C@H]1O[C@@H](n2cnc(N)nc2=O)C(F)(F)C1O (some centres unmarked) [Compound 016]	0.4 (≈ 0.668 µM)	> 10					
C[C@H](NP(=O)(OC[C@H]1O[C@@H](n2ccc(N)nc2=O)C(F)(F)C1O)Oc1ccccc1)C(=O)OC(C)(C)c1ccc([N+](=O)[O-])cc1 (some centres unmarked) [Compound 002]			0.1 (≈ 0.153 µM)	2 (≈ 3.06 µM)	0.2 (≈ 0.306 µM)	> 10	IC50 [1, 12]: 0.4 µg/mL (≈ 0.612 µM); IC50 [1, 13]: > 10 µg/mL
C[C@H](NP(=O)(OC[C@H]1O[C@@H](n2ccc(N)nc2=O)C(F)(F)C1O)Oc1ccccc1)C(=O)OCc1ccc([N+](=O)[O-])cc1 (some centres unmarked) [Compound 023]			0.01 (≈ 0.016 µM)	0.01 (≈ 0.016 µM)	0.3 (≈ 0.48 µM)	0.4 (≈ 0.64 µM)	IC50 [1, 12]: 0.1 µg/mL (≈ 0.16 µM); IC50 [1, 13]: 0.1 µg/mL (≈ 0.16 µM); Cytotoxicity under a hypoxic condition compared with that under a normal oxygen condition [3]: not significantly different
CC(OP(=O)(N[C@@H](C)C(=O)OC1CCCCC1)OC[C@H]1O[C@@H](n2cnc(N)nc2=O)C(F)(F)C1O)c1ccc([N+](=O)[O-])cc1 (some centres unmarked) [Compound 012]	0.5 (≈ 0.773 µM)	> 10			0.5 (≈ 0.773 µM)	> 10	
CCOC(=O)[C@H](C)NP(=O)(OCc1cnc([N+](=O)[O-])n1C)OC[C@H]1O[C@@H](n2cnc(N)nc2=O)C(F)(F)C1O (some centres unmarked) [Compound 017]	0.8 (≈ 1.37 µM)	> 10					
CC(OP(=O)(N[C@@H](C)C(=O)OCC(C)(C)C)OC[C@H]1O[C@@H](n2cnc(N)nc2=O)C(F)(F)C1O)c1ccc([N+](=O)[O-])cc1 (some centres unmarked) [Compound 011]			0.2 (≈ 0.315 µM)	2 (≈ 3.15 µM)			
CC(OC(=O)[C@H](C)NP(=O)(OC[C@H]1O[C@@H](n2ccc(N)nc2=O)C(F)(F)C1O)Oc1ccccc1)c1cnc([N+](=O)[O-])n1C (some centres unmarked) [Compound 003]					0.4 (≈ 0.622 µM)	> 10	
CC(OC(=O)[C@H](C)NP(=O)(OCc1ccc(N(C)C)cc1)OC[C@H]1O[C@@H](n2ccc(N)nc2=O)C(F)(F)C1O)c1ccc([N+](=O)[O-])cc1 (some centres unmarked) [Compound 020]	0.4 (≈ 0.574 µM)	> 10					
C[C@H](NP(=O)(OC[C@H]1O[C@@H](n2ccc(N)nc2=O)C(F)(F)[C@@H]1O)Oc1ccccc1)C(=O)OCc1ccccc1 (some centres unmarked) [NUC-1031, reference compound]			0.01 (≈ 0.0172 µM)	0.01 (≈ 0.0172 µM)	0.2 (≈ 0.345 µM)	0.2 (≈ 0.345 µM)	IC50 [1, 12]: 0.1 µg/mL (≈ 0.172 µM); IC50 [1, 13]: 0.1 µg/mL (≈ 0.172 µM); Cytotoxicity under a hypoxic condition compared with that under a normal oxygen condition [3]: no significant difference
Cc1ccccc1COP(=O)(N[C@@H](C)C(=O)OC(C)(C)c1ccc([N+](=O)[O-])s1)OC[C@H]1O[C@@H](n2ccc(N)nc2=O)C(F)(F)C1O (some centres unmarked) [Compound 019]	0.8 (≈ 1.16 µM)	> 10					
